Laboratory results taken from ChEMBL document CHEMBL5344434.
pEC50: −log10 of the molar value.

Tests used:
[1] = Selectivity index, ratio for cytotoxicity against human HepG2 cells after 24 hrs to antiviral activity against HEV Kernow-C1 infected in gaussia luciferase transfected HepG2 cells pre-infected with virus for 4 hrs followed by compound addition and measured after 24 hrs post infection; type: toxicity, cell-based; details: read-out: Selectivity Index
[2] = Selectivity index, ratio for cytotoxicity against human HepG2 cells after 48 hrs to antiviral activity against HEV Kernow-C1 infected in gaussia luciferase transfected HepG2 cells pre-infected with virus for 4 hrs followed by compound addition and measured after 48 hrs post infection; type: toxicity, cell-based; details: read-out: Selectivity Index
[3] = Cytotoxicity against human HepG2 cells after 48 hrs by MTT assay; type: toxicity, cell-based
Hepatitis E virus [4] = experiment: Antiviral activity against HEV Kernow-C1 infected in gaussia luciferase transfected HepG2 cells assessed as reduction in viral replication pre-infected with virus for 4 hrs followed by compound addition and measured after 48 hrs post infection by luminometer analysis; type: functional, organism-based; details: for EC90: time 44 hrs
Hepatitis E virus [5] = experiment: Antiviral activity against HEV Kernow-C1 infected in gaussia luciferase transfected HepG2 cells assessed as reduction in viral replication pre-infected with virus for 4 hrs followed by compound addition and measured after 24 hrs post infection by luminometer analysis; type: functional, organism-based; details: for EC90: time 20 hrs
[6] = Cytotoxicity against human HepG2 cells after 24 hrs by MTT assay; type: toxicity, cell-based
[7] = Selectivity index, ratio for cytotoxicity against african green monkey Vero E6 cells after 48 hrs to antiviral activity against SARS-CoV-2 2019-nCoV Muc-IMB-1 infected in Vero E6 cells pre-infected with virus for 1 hr followed by compound addition and measured after 48 hrs post infection; type: toxicity, cell-based, Vero C1008; details: read-out: Selectivity Index
[8] = Selectivity index, ratio for cytotoxicity against human Huh-7 cells after 48 hrs to antiviral activity against Chikungunya virus ECSA infected in Huh-7 cells expressing GFP pre-infected with virus for 1 hr followed by compound addition and measured after 48 hrs post infection; type: toxicity, cell-based; details: read-out: Selectivity Index
[9] = Selectivity index, ratio for cytotoxicity against african green monkey Vero E6 cells after 24 hrs to antiviral activity against SARS-CoV-2 2019-nCoV Muc-IMB-1 infected in Vero E6 cells pre-infected with virus for 1 hr followed by compound addition and measured after 24 hrs post infection; type: toxicity, cell-based, Vero C1008; details: read-out: Selectivity Index
[10] = Selectivity index, ratio for cytotoxicity against african green monkey Vero E6 cells after 48 hrs to antiviral activity against RVFV MP-12 infected in Vero E6 cells pre-infected with virus for 1 hr followed by compound addition and measured after 48 hrs post infection; type: toxicity, cell-based, Vero C1008; details: read-out: Selectivity Index
[11] = Selectivity index, ratio for cytotoxicity against human Huh-7 cells after 24 hrs to antiviral activity against Chikungunya virus ECSA infected in Huh-7 cells expressing GFP pre-infected with virus for 1 hr followed by compound addition and measured after 24 hrs post infection; type: toxicity, cell-based; details: read-out: Selectivity Index
[12] = Selectivity index, ratio for cytotoxicity against african green monkey Vero E6 cells after 24 hrs to antiviral activity against RVFV MP-12 infected in Vero E6 cells pre-infected with virus for 1 hr followed by compound addition and measured after 24 hrs post infection; type: toxicity, cell-based, Vero C1008; details: read-out: Selectivity Index
Vero C1008 = experiment: Cytotoxicity against african green monkey Vero E6 cells after 48 hrs by MTT assay; type: toxicity, cell-based; details: chlorocebus sabaeus, vero c1008, 48 h

SMILES | selectivity ratio at 24 h [1] | selectivity ratio at 48 h [2] | also measured
COC(=O)[C@H]1[C@@H](O)[C@@]2(O)c3c(OC)cc(OC)cc3O[C@@]2(c2ccc(Br)cc2)[C@@H]1c1ccccc1 (racemic) | 74.1 | 3.2 | –
CONC(=O)[C@H]1[C@@H](O)[C@@]2(O)c3c(OC)cc(OC)cc3O[C@@]2(c2ccc(OC)cc2)[C@@H]1c1ccccc1 (racemic) | 35.4 | 3.8 | CC50 at 48 h [3]: 14.3 nM; pEC50 (Hepatitis E virus [4]): 8.43; EC90 (Hepatitis E virus [4]): 27.3 nM; pEC50 (Hepatitis E virus [5]): 8.21; EC90 (Hepatitis E virus [5]): 29 nM; CC50 at 24 h [6]: 188 nM
COC(=O)[C@H]1[C@@H](O)[C@@]2(O)c3c(OC)cc(Cl)cc3O[C@@]2(c2ccc(OC)cc2)[C@@H]1c1ccccc1 (racemic) | 79.3 | 7.5 | –
COC(=O)[C@H]1[C@@H](O)[C@@]2(O)c3c(OC)cc(OC)cc3O[C@@]2(c2ccc(Cl)cc2)[C@@H]1c1ccccc1 (racemic) | 26.4 | 2.2 | –
CONC(=O)[C@H]1[C@@H](O)[C@@]2(O)c3c(OC)cc(OC)cc3O[C@@]2(c2ccc(F)cc2)[C@@H]1c1ccccc1 (racemic) | 13.5 | 3.7 | CC50 at 48 h [3]: 143 nM; pEC50 (Hepatitis E virus [4]): 7.28; EC90 (Hepatitis E virus [4]): 338 nM; pEC50 (Hepatitis E virus [5]): 7.27; EC90 (Hepatitis E virus [5]): 670 nM; CC50 at 24 h [6]: 666 nM
CONC(=O)[C@H]1[C@@H](O)[C@@]2(O)c3c(F)cc(OC)cc3O[C@@]2(c2ccc(OC)cc2)[C@@H]1c1ccccc1 (racemic) | 28.5 | 2.5 | –
COC(=O)[C@H]1[C@@H](O)[C@@]2(O)c3c(F)cc(F)cc3O[C@@]2(c2ccc(OC)cc2)[C@@H]1c1ccccc1 (racemic) | 1 | 1 | –
COC(=O)[C@H]1[C@@H](O)[C@@]2(O)c3c(Br)cc(OC)cc3O[C@@]2(c2ccc(OC)cc2)[C@@H]1c1ccccc1 (racemic) | 9.7 | 2.5 | –
COC(=O)[C@H]1[C@@H](O)[C@@]2(O)c3c(Cl)cc(OC)cc3O[C@@]2(c2ccc(OC)cc2)[C@@H]1c1ccccc1 (racemic) | 9.3 | 1.8 | –
COCOc1cc(F)c2c(c1)O[C@@]1(c3ccc(Br)cc3)[C@H](c3ccccc3)[C@@H](C(=O)OC)[C@@H](O)[C@@]21O (racemic) | 8.1 | 2.1 | –
COC(=O)[C@H]1[C@@H](O)[C@@]2(O)c3c(Cl)cc(Cl)cc3O[C@@]2(c2ccc(Br)cc2)[C@@H]1c1ccccc1 (racemic) | 13.4 | 3.7 | –
COC(=O)[C@H]1[C@@H](O)[C@@]2(O)c3c(F)cc(OC)cc3O[C@@]2(c2ccc(OC)cc2)[C@@H]1c1ccccc1 (racemic) | 30.4 | 2.5 | –
COC(=O)[C@H]1[C@@H](O)[C@@]2(O)c3c(OC)cc(Br)cc3O[C@@]2(c2ccc(OC)cc2)[C@@H]1c1ccccc1 (racemic) | 160 | 11 | selectivity ratio at 48 h [7]: 20.9; selectivity ratio at 48 h [8]: 428; selectivity ratio at 24 h [9]: 29.5; selectivity ratio at 48 h [10]: 23.1; selectivity ratio at 24 h [11]: 637; selectivity ratio at 24 h [12]: 38.4
COC(=O)[C@H]1[C@@H](O)[C@@]2(O)c3c(Cl)cc(Br)cc3O[C@@]2(c2ccc(OC)cc2)[C@@H]1c1ccccc1 (racemic) | 122 | 5.1 | –
COC(=O)[C@H]1[C@@H](O)[C@@]2(O)c3c(OC)cc(F)cc3O[C@@]2(c2ccc(OC)cc2)[C@@H]1c1ccccc1 (racemic) | 1 | 1.3 | –
COC(=O)[C@H]1[C@@H](O)[C@@]2(O)c3c(Cl)cc(Cl)cc3O[C@@]2(c2ccc(OC)cc2)[C@@H]1c1ccccc1 (racemic) | 31.7 | 8.2 | selectivity ratio at 48 h [7]: 5.7; selectivity ratio at 48 h [8]: 44.9; selectivity ratio at 24 h [9]: 9; selectivity ratio at 48 h [10]: 7; selectivity ratio at 24 h [11]: 57.5; selectivity ratio at 24 h [12]: 9.8
COCOc1cc(F)c2c(c1)O[C@@]1(c3ccc(OC)cc3)[C@H](c3ccccc3)[C@@H](C(=O)OC)[C@@H](O)[C@@]21O (racemic) | 4.6 | 1.8 | –
CONC(=O)[C@H]1[C@@H](O)[C@@]2(O)c3c(Br)cc(Cl)cc3O[C@@]2(c2ccc(OC)cc2)[C@@H]1c1ccccc1 (racemic) | 163 | 4.6 | CC50 at 48 h [3]: 26.3 nM; pEC50 (Hepatitis E virus [4]): 8.26; EC90 (Hepatitis E virus [4]): 62.9 nM; pEC50 (Hepatitis E virus [5]): 8.39; EC90 (Hepatitis E virus [5]): 131 nM; CC50 at 24 h [6]: 464 nM
CONC(=O)[C@H]1[C@@H](O)[C@@]2(O)c3c(Cl)cc(Cl)cc3O[C@@]2(c2ccc(OC)cc2)[C@@H]1c1ccccc1 (racemic) | 65.9 | 3.3 | –
COC(=O)[C@H]1[C@@H](O)[C@@]2(O)c3c(Br)cc(Br)cc3O[C@@]2(c2ccc(OC)cc2)[C@@H]1c1ccccc1 (racemic) | 22.1 | 2.6 | –
COC(=O)[C@H]1[C@@H](O)[C@@]2(O)c3c(OC)cc(OC)cc3O[C@@]2(c2ccc(F)cc2)[C@@H]1c1ccccc1 (racemic) | 10.9 | 1.4 | –
CONC(=O)[C@H]1[C@@H](O)[C@@]2(O)c3c(OC)cc(Br)cc3O[C@@]2(c2ccc(OC)cc2)[C@@H]1c1ccccc1 (racemic) | 52800 | 7.4 | –
COc1cc(OC)c2c(c1)O[C@@]1(c3ccc(F)cc3)[C@H](c3ccccc3)[C@@H](C(=O)N(C)C)[C@@H](O)[C@@]21O (racemic) | 4.4 | 1.5 | –
CONC(=O)[C@H]1[C@@H](O)[C@@]2(O)c3c(OC)cc(OC)cc3O[C@@]2(c2ccc(Cl)cc2)[C@@H]1c1ccccc1 (racemic) | 198 | 4.2 | CC50 at 48 h [3]: 10 nM; pEC50 (Hepatitis E virus [4]): 8.64; EC90 (Hepatitis E virus [4]): 18.2 nM; pEC50 (Hepatitis E virus [5]): 8.55; EC90 (Hepatitis E virus [5]): 23.8 nM; CC50 at 24 h [6]: 529 nM
COC(=O)[C@H]1[C@@H](O)[C@@]2(O)c3c(Br)cc(Cl)cc3O[C@@]2(c2ccc(OC)cc2)[C@@H]1c1ccccc1 (racemic) | 19 | 2.8 | –
CONC(=O)[C@H]1[C@@H](O)[C@@]2(O)c3c(Cl)cc(Br)cc3O[C@@]2(c2ccc(OC)cc2)[C@@H]1c1ccccc1 (racemic) | 123 | 5.7 | selectivity ratio at 48 h [7]: 0.9; selectivity ratio at 48 h [8]: 317; CC50 (Vero C1008): 176 nM; selectivity ratio at 24 h [9]: 19.5; selectivity ratio at 48 h [10]: 1.7; selectivity ratio at 24 h [11]: 402; selectivity ratio at 24 h [12]: 23.8
COc1ccc([C@@]23Oc4cc(OC)cc(F)c4[C@]2(O)[C@H](O)[C@H](C(=O)N(C)C)[C@H]3c2ccccc2)cc1 (racemic) | 14.3 | 2.7 | –
COc1cc(OC)c2c(c1)O[C@@]1(c3ccc(Cl)cc3)[C@H](c3ccccc3)[C@@H](C(=O)N(C)C)[C@@H](O)[C@@]21O (racemic) | 50.8 | 2.7 | –
COc1ccc([C@@]23Oc4cc(OC)cc(OC)c4[C@]2(O)[C@H](O)[C@H](C(=O)N(C)C)[C@H]3c2ccccc2)cc1 (racemic) [ROCAGLAMIDE] | 19.7 | 2.1 | –
COC(=O)[C@H]1[C@@H](O)[C@@]2(O)c3c(OC)cc(O[C@@H]4O[C@@H]([C@H](O)CO)CO[C@H]4OC)cc3O[C@@]2(c2ccc(OC)cc2)[C@@H]1c1ccccc1 [SILVESTROL] | 76.7 | 6.1 | –
